Common to all, as to test: NCI-60 cell line screen, 48 h
Test [1] deals with HT-29.
The subject of test [2] is HCT-116.
The test system of test [3] is SW-620.
Test [4] concerns SF-295.
Test [5] relates to CCRF-CEM.
Test [6] relates to SK-MEL-2.
In test [7] the test system is SN12C.
In test [8] the test system is OVCAR-5.
In test [9] the test system is UO-31.
For test [10], the system named is OVCAR-8.
The subject of test [11] is SF-268.
The test system of test [12] is SK-MEL-5.
Test [13] concerns NCI-H460.
Test [14] relates to LOX IMVI.
The test system of test [15] is COLO 205.
Test [16] concerns MOLT-4.
In test [17] the test system is A549.
In test [18] the test system is HL-60.
For test [19], the system named is K562.
Test [20] concerns SK-MEL-28.

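Cultured in 96-well plates, cells were exposed to test compound for 48 hours across five concentrations. Here, GI50 denotes the concentration required for 50% inhibition of growth.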 The source made the active and inactive calls. Rule as the data show it: active = GI50 up to about 1.1 µM and inactive = higher.

For `Cc1c(OCc2ccccc2)c(=O)ccn1CCc1c[nH]c2ccccc12`, the GI50 in test [1] was 23.3 µM (inactive); in [2] it was 38.3 µM (inactive); in test [3], 36.1 µM (inactive); in test [4], 56.4 µM (inactive); in [5], 40.7 µM (inactive); in [6], 19 µM (inactive). Further, the GI50 in test [7] was 45.6 µM (inactive); in test [8], 65.9 µM (inactive); in test [9], 43.1 µM (inactive); in [10], 53 µM (inactive); in test [11], 19.2 µM (inactive); in test [12], 18.3 µM (inactive). Further, the GI50 in test [13] was 33.7 µM (inactive); in [14], 44.6 µM (inactive); in [15], 16.4 µM (inactive); in [16], 1.9 µM (inactive); in test [17], 36.6 µM (inactive).

Turning to `COc1cc(C)cc2c1C(=O)C(NC(C)=O)=CC2=O`, the GI50 was > 100 µM (inactive) in test [1]; 23.3 µM (inactive) in [18]; > 100 µM (inactive) in [2]; > 100 µM (inactive) in [3]; > 100 µM (inactive) in test [4]; 34.3 µM (inactive) in [5]. The GI50 in test [19] was 43.1 µM (inactive); in test [6], > 100 µM (inactive); in [20], > 100 µM (inactive); in test [7] it was > 100 µM (inactive); in test [8], > 100 µM (inactive); in test [9], > 100 µM (inactive). For the same compound, the GI50 was > 100 µM (inactive) in [10]; > 100 µM (inactive) in [11]; > 100 µM (inactive) in test [12]; > 100 µM (inactive) in test [13]; > 100 µM (inactive) in test [15]; 28.2 µM (inactive) in test [16]. In addition, the GI50 in test [17] was > 100 µM (inactive).

For the compound `N#C/C(=C\c1cccc(O)c1O)C(N)=O`, the GI50 in test [1] is 58.5 µM (inactive); in test [18], 15.5 µM (inactive); in test [2], 34.5 µM (inactive); in test [3], 50.2 µM (inactive); in test [4] it was 58.1 µM (inactive); in test [5] it was 14.1 µM (inactive). Moreover, the GI50 was 38.6 µM (inactive) in [19]; 38.4 µM (inactive) in [6]; 30.8 µM (inactive) in test [20]; 45.6 µM (inactive) in test [7]; > 100 µM (inactive) in test [8]; 22.7 µM (inactive) in [9]. The GI50 in test [10] was 60.8 µM (inactive); in [11] it was 37.9 µM (inactive); in [13], 29.4 µM (inactive); in test [15], 21.5 µM (inactive); in test [16], 35.9 µM (inactive); in [17], 65.3 µM (inactive).

Consider `COc1ccc(C2C(C(=O)O)=C(COC(C)=O)Oc3cc4c(cc32)OCO4)cc1` (stereo not given), for which the GI50 in test [1], in [18], in test [2], in test [3], in test [4] and in test [5] was > 100 µM (inactive) throughout. Besides, the GI50 in test [19], in test [20], in test [7], in test [9], in test [10] and in test [12] was > 100 µM (inactive) in each case. Moreover, the GI50 in test [13], in test [14], in test [15], in [16] and in test [17] was > 100 µM (inactive) throughout.

Take `CCOC(=O)c1c(-c2ccccc2)c(C)cn1C`: the GI50 in [1], in test [2], in [4], in test [5], in test [19] and in test [6] was > 10 µM (inactive) each time. In addition, the GI50 in test [7] was 3.73 µM (inactive); in test [8], > 10 µM (inactive); in test [9], > 10 µM (inactive); in [10], > 10 µM (inactive); in test [11], > 10 µM (inactive); in test [13] it was > 10 µM (inactive). For the same compound, the GI50 in [16] and in test [17] was > 10 µM (inactive) in each case.

In the case of `COc1cc2cc(C(=O)N3CC(CCl)c4c3cc(N(C)C)c3ccccc43)[nH]c2c(OC)c1OC` (stereo not given), the GI50 in [1] was < 0.01 µM (active); in [2], < 0.01 µM (active); in test [3] it was 0.0107 µM (active); in test [4], < 0.01 µM (active); in [5], < 0.01 µM (active); in test [19], < 0.01 µM (active). For the same compound, the GI50 in test [6] is < 0.01 µM (active); in test [20] it was 0.0483 µM (active); in test [7], < 0.01 µM (active); in test [8], < 0.0108 µM (active); in test [9] it was < 0.01 µM (active); in test [10] it was < 0.01 µM (active). The GI50 in [11] was < 0.01 µM (active); in test [12] it was < 0.01 µM (active); in [13] it was < 0.01 µM (active); in test [14], < 0.01 µM (active); in [15], 0.012 µM (active); in [16], < 0.01 µM (active). Besides, the GI50 in test [17] is < 0.01 µM (active).

With `C/C([O-])=C(/c1nc(-c2ccc([N+](=O)[O-])o2)no1)[n+]1cc(C)ccc1C`, the GI50 was 9.79 µM (inactive) in test [1]; 6.25 µM (inactive) in test [2]; 5.31 µM (inactive) in test [3]; 11.7 µM (inactive) in [4]; 1.53 µM (inactive) in test [5]; 0.692 µM (active) in test [19]. Further, the GI50 in test [6] is 7.94 µM (inactive); in test [20] it was 12.7 µM (inactive); in test [7] it was 13.6 µM (inactive); in test [8] it was 21.8 µM (inactive); in test [9] it was 21.7 µM (inactive); in test [10], 19.8 µM (inactive). Besides, the GI50 in [11] is 20.3 µM (inactive); in [12], 10.6 µM (inactive); in test [13], 4.62 µM (inactive); in test [14], 5.94 µM (inactive); in [15], 6.08 µM (inactive); in [16] it was > 100 µM (inactive). Besides, in test [17], the GI50 is 15 µM (inactive).

For the compound `CCCCOP1(=O)C=CC(Cl)=C(C)C1` (stereo not given), the GI50 in [1] was 22 µM (inactive); in test [18] it was 16.1 µM (inactive); in test [2], 21.2 µM (inactive); in test [3], 20.4 µM (inactive); in test [4], 18.2 µM (inactive); in test [5], 4.11 µM (inactive). The GI50 in test [19] is 3.28 µM (inactive); in test [6], 12.4 µM (inactive); in [20], 16.3 µM (inactive); in test [7] it was 20 µM (inactive); in test [9] it was 41.8 µM (inactive); in test [10], 21.6 µM (inactive). Moreover, the GI50 in test [11] is 28.1 µM (inactive); in test [13], 29.8 µM (inactive); in test [15], 33 µM (inactive); in [16], 3.83 µM (inactive); in [17] it was > 100 µM (inactive).

Values taken from ChEMBL document CHEMBL1201862, “PubChem BioAssay data set” (2004).
